PMC5218480 (PLoS ONE, 2017)

System: MV-4-11 cells
Assay: Gene expression microarray analysis (Affymetrix PrimeView) and GSEA
Type: cell-based, human
Parameters: RFU PODN (11730768_x_at) / Fold change /veh PODN (11730768_x_at) / RFU LINC00158 (11744669_a_at) / Fold change /veh LINC00158 (11744669_a_at) / RFU DUSP10 (11751237_a_at) / Fold change /veh DUSP10 (11751237_a_at) / RFU ID3 (11757404_x_at) / Fold change /veh ID3 (11757404_x_at) / RFU PLEKHG5 (11737974_s_at) / Fold change /veh PLEKHG5 (11737974_s_at) / RFU LRRC4B (11730491_at) / Fold change /veh LRRC4B (11730491_at) / RFU GIMAP4 (11747438_a_at) / Fold change /veh GIMAP4 (11747438_a_at) / RFU KRT8 (11758183_x_at) / Fold change /veh KRT8 (11758183_x_at) / RFU CNN1 (11734310_a_at) / Fold change /veh CNN1 (11734310_a_at) / RFU VPS37D (11726825_at) / Fold change /veh VPS37D (11726825_at) / RFU C10orf10 (11716522_x_at) / Fold change /veh C10orf10 (11716522_x_at) / RFU KIR2DL2 /// KIR2DL4 /// KIR2DL5A /// KIR2DL5B /// KIR2DS1 /// KIR2DS2 /// KIR2DS3 /// KIR2DS4 /// KIR3DL3 /// KIR3DL3 /// KIR3DS1 (11738374_at) / Fold change /veh KIR2DL2 /// KIR2DL4 /// KIR2DL5A /// KIR2DL5B /// KIR2DS1 /// KIR2DS2 /// KIR2DS3 /// KIR2DS4 /// KIR3DL3 /// KIR3DL3 /// KIR3DS1 (11738374_at) / RFU C1QL1 (11718748_at) / Fold change /veh C1QL1 (11718748_at) / RFU TMPRSS4 (11747572_a_at) / Fold change /veh TMPRSS4 (11747572_a_at) / RFU HAMP (11756126_x_at) / Fold change /veh HAMP (11756126_x_at) / RFU RNFT2 (11725882_a_at) / Fold change /veh RNFT2 (11725882_a_at) / RFU NR4A2 (11747474_a_at) / Fold change /veh NR4A2 (11747474_a_at) / RFU ABCC12 (11746883_a_at) / Fold change /veh ABCC12 (11746883_a_at) / RFU TMEM136 (11760407_x_at) / Fold change /veh TMEM136 (11760407_x_at) / RFU CLDN22 /// WWC2 (11732394_at) / Fold change /veh CLDN22 /// WWC2 (11732394_at) / RFU HLA-DPB1 (11760878_x_at) / Fold change /veh HLA-DPB1 (11760878_x_at) / RFU SPINT1 (11716480_a_at) / Fold change /veh SPINT1 (11716480_a_at) / RFU GAP43 (11754022_s_at) / Fold change /veh GAP43 (11754022_s_at) / RFU A4GNT (11735810_at) / Fold change /veh A4GNT (11735810_at) / RFU PRB3 (11715151_x_at) / Fold change /veh PRB3 (11715151_x_at) / RFU TUBB4B (11761932_at) / Fold change /veh TUBB4B (11761932_at) / RFU CAPN14 (11732068_a_at) / Fold change /veh CAPN14 (11732068_a_at) / RFU TMCC2 (11721928_a_at) / Fold change /veh TMCC2 (11721928_a_at) / RFU IRGQ (11745062_a_at) / Fold change /veh IRGQ (11745062_a_at) / RFU FAM174B (11720279_a_at) / Fold change /veh FAM174B (11720279_a_at) / RFU TMPRSS4 (11748680_a_at) / Fold change /veh TMPRSS4 (11748680_a_at) / RFU FAM212B (11763350_a_at) / Fold change /veh FAM212B (11763350_a_at) / RFU PLEKHG5 (11743358_a_at) / Fold change /veh PLEKHG5 (11743358_a_at) / RFU ZSCAN30 (11745921_a_at) / Fold change /veh ZSCAN30 (11745921_a_at) / RFU CMKLR1 (11741424_a_at) / Fold change /veh CMKLR1 (11741424_a_at) / RFU LOC101060620 /// MAPK8IP1 (11723275_at) / Fold change /veh LOC101060620 /// MAPK8IP1 (11723275_at) / RFU SPTSSB (11747773_x_at) / Fold change /veh SPTSSB (11747773_x_at) / RFU PRSS12 (11739890_at) / Fold change /veh PRSS12 (11739890_at) / RFU BIN1 (11741810_x_at) / Fold change /veh BIN1 (11741810_x_at) / RFU WNT11 (11732464_a_at) / Fold change /veh WNT11 (11732464_a_at) / RFU C10orf10 (11716521_a_at) / Fold change /veh C10orf10 (11716521_a_at) / RFU C5orf56 (11738089_at) / Fold change /veh C5orf56 (11738089_at) / RFU CYB561 (11721691_x_at) / Fold change /veh CYB561 (11721691_x_at) / RFU ANKRD19P (11752326_a_at) / Fold change /veh ANKRD19P (11752326_a_at) / RFU OR2T12 /// OR2T33 /// OR2T8 (11738714_s_at) / Fold change /veh OR2T12 /// OR2T33 /// OR2T8 (11738714_s_at) / RFU VCAN (11748164_a_at) / Fold change /veh VCAN (11748164_a_at) / RFU JSRP1 (11732532_at) / Fold change /veh JSRP1 (11732532_at) / RFU KRTAP10-11 (11738290_x_at) / Fold change /veh KRTAP10-11 (11738290_x_at) / RFU MYO3A (11730013_a_at) / Fold change /veh MYO3A (11730013_a_at) / RFU EBF3 (11725865_a_at) / Fold change /veh EBF3 (11725865_a_at) / RFU CAMK2N1 (11719241_x_at) / Fold change /veh CAMK2N1 (11719241_x_at) / RFU C5orf56 (11738088_a_at) / Fold change /veh C5orf56 (11738088_a_at) / RFU OLFML3 (11715873_a_at) / Fold change /veh OLFML3 (11715873_a_at) / RFU LOC100653217 /// NTM (11731650_a_at) / Fold change /veh LOC100653217 /// NTM (11731650_a_at) / RFU MAPK11 (11762145_a_at) / Fold change /veh MAPK11 (11762145_a_at) / RFU FIZ1 (11724087_x_at) / Fold change /veh FIZ1 (11724087_x_at) / RFU OASL (11726364_x_at) / Fold change /veh OASL (11726364_x_at) / RFU SOX15 (11748057_x_at) / Fold change /veh SOX15 (11748057_x_at) / RFU CD79A (11719716_a_at) / Fold change /veh CD79A (11719716_a_at) / RFU HIST1H1D (11736915_at) / Fold change /veh HIST1H1D (11736915_at) / RFU CASKIN2 (11723855_a_at) / Fold change /veh CASKIN2 (11723855_a_at) / RFU LOC730098 (11760151_x_at) / Fold change /veh LOC730098 (11760151_x_at) / RFU OR4N2 (11742367_at) / Fold change /veh OR4N2 (11742367_at) / RFU PRRT2 (11749266_a_at) / Fold change /veh PRRT2 (11749266_a_at) / RFU SNX32 (11753110_a_at) / Fold change /veh SNX32 (11753110_a_at) / RFU CDHR5 (11726645_a_at) / Fold change /veh CDHR5 (11726645_a_at) / RFU RCAN1 (11760418_a_at) / Fold change /veh RCAN1 (11760418_a_at) / RFU FAM167A (11723789_a_at) / Fold change /veh FAM167A (11723789_a_at) / RFU FAM26E (11764081_at) / Fold change /veh FAM26E (11764081_at) / RFU ISYNA1 (11749810_s_at) / Fold change /veh ISYNA1 (11749810_s_at) / RFU ACY1 (11761880_at) / Fold change /veh ACY1 (11761880_at) / RFU 11764098_at / Fold change /veh 11764098_at / RFU SAMD14 (11745864_x_at) / Fold change /veh SAMD14 (11745864_x_at) / RFU NPB (11741838_a_at) / Fold change /veh NPB (11741838_a_at) / RFU TMPRSS6 (11731388_a_at) / Fold change /veh TMPRSS6 (11731388_a_at) / RFU KRTAP10-2 (11738614_at) / Fold change /veh KRTAP10-2 (11738614_at) / RFU ARHGAP8 /// PRR5-ARHGAP8 (11727945_x_at) / Fold change /veh ARHGAP8 /// PRR5-ARHGAP8 (11727945_x_at) / RFU KRTAP5-7 /// NADSYN1 (11734609_at) / Fold change /veh KRTAP5-7 /// NADSYN1 (11734609_at) / RFU RASL12 (11751679_a_at) / Fold change /veh RASL12 (11751679_a_at) / RFU CDKN2B (11736163_a_at) / Fold change /veh CDKN2B (11736163_a_at) / RFU PRF1 (11729649_at) / Fold change /veh PRF1 (11729649_at) / RFU, ZNF638 /// ZNF638-IT1 / Fold change vs veh, ZNF638 /// ZNF638-IT1 / RFU, PANK3 / Fold change vs veh, PANK3 / RFU, SH3YL1 / Fold change vs veh, SH3YL1 / RFU, ZEB2 / Fold change vs veh, ZEB2 / RFU, NRIP1 / Fold change vs veh, NRIP1 / RFU, PTTG1IP / Fold change vs veh, PTTG1IP / RFU, CAPN2 / Fold change vs veh, CAPN2 / RFU, MED14 / Fold change vs veh, MED14 / RFU, SNORA58 / Fold change vs veh, SNORA58 / RFU, C1orf63 / Fold change vs veh, C1orf63 / RFU, LRRFIP1 / Fold change vs veh, LRRFIP1 / RFU, NDUFAF7 / Fold change vs veh, NDUFAF7 / RFU, SLC12A2 / Fold change vs veh, SLC12A2 / RFU, IBTK / Fold change vs veh, IBTK / RFU, ESF1 / Fold change vs veh, ESF1 / Fold change vs veh, TMEM50B / RFU, TAOK1 / Fold change vs veh, TAOK1 / RFU, ACBD3 / Fold change vs veh, ACBD3 / RFU, TMA16 / Fold change vs veh, TMA16 / RFU, RWDD3 / Fold change vs veh, RWDD3 / RFU, BCAT1 / Fold change vs veh, BCAT1 / RFU, EDEM3 / Fold change vs veh, EDEM3 / RFU, TMEM33 / Fold change vs veh, TMEM33 / RFU, WDR75 / Fold change vs veh, WDR75 / RFU, AHCTF1 / Fold change vs veh, AHCTF1 / RFU, TFRC / Fold change vs veh, TFRC / RFU, ZDHHC17 / Fold change vs veh, ZDHHC17 / RFU, NOM1 / Fold change vs veh, NOM1 / RFU, ARL8B / Fold change vs veh, ARL8B / RFU, ZBTB11 / Fold change vs veh, ZBTB11 / RFU, TAMM41 / Fold change vs veh, TAMM41 / RFU, KIAA1704 /// LOC100996395 / Fold change vs veh, KIAA1704 /// LOC100996395 / RFU, ING1 / Fold change vs veh, ING1 / RFU, TRMT61B / Fold change vs veh, TRMT61B / RFU, FUBP3 / Fold change vs veh, FUBP3 / RFU, TP53 / Fold change vs veh, TP53 / RFU, TNKS2 / Fold change vs veh, TNKS2 / RFU, ZFP14 / Fold change vs veh, ZFP14 / RFU, ACTR2 / Fold change vs veh, ACTR2 / RFU, PPP3R1 / Fold change vs veh, PPP3R1 / RFU, PIK3R1 / Fold change vs veh, PIK3R1 / RFU, HNRNPA1 / Fold change vs veh, HNRNPA1 / RFU, RNF170 / Fold change vs veh, RNF170 / RFU, ZNF28 / Fold change vs veh, ZNF28 / RFU, RNGTT / Fold change vs veh, RNGTT / RFU, OGT / Fold change vs veh, OGT / RFU, BRD1 / Fold change vs veh, BRD1 / RFU, MARS / Fold change vs veh, MARS / RFU, ZNF655 / Fold change vs veh, ZNF655 / RFU, FAHD1 / Fold change vs veh, FAHD1 / RFU, BDP1 / Fold change vs veh, BDP1 / RFU, LRRCC1 / Fold change vs veh, LRRCC1 / RFU, ARID1A / Fold change vs veh, ARID1A / RFU, ZNF146 / Fold change vs veh, ZNF146 / RFU, ZNF330 / Fold change vs veh, ZNF330 / RFU, GPN3 / Fold change vs veh, GPN3 / RFU, C9orf123 / Fold change vs veh, C9orf123 / RFU, N4BP2L2 / Fold change vs veh, N4BP2L2 / RFU, ARFIP1 / Fold change vs veh, ARFIP1 / RFU, FAM179B / Fold change vs veh, FAM179B / RFU, BCL10 / Fold change vs veh, BCL10 / RFU, UHRF1BP1L / Fold change vs veh, UHRF1BP1L / RFU, BET1 / Fold change vs veh, BET1 / RFU, CNOT2 / Fold change vs veh, CNOT2 / RFU, ZNF268 / Fold change vs veh, ZNF268 / Fold change vs veh, ZNF507 / RFU, DGCR2 / Fold change vs veh, DGCR2 / RFU, WDSUB1 / Fold change vs veh, WDSUB1 / Fold change vs veh, HSP90B1 /// MIR3652 / RFU, ADSS / Fold change vs veh, ADSS / RFU, GK / Fold change vs veh, GK / RFU, ZNF148 / Fold change vs veh, ZNF148 / RFU, TAF9 / Fold change vs veh, TAF9 / RFU, SLC1A5 / Fold change vs veh, SLC1A5 / RFU, SLMO2 / Fold change vs veh, SLMO2 / RFU, ABCC4 / Fold change vs veh, ABCC4 / RFU, LOC101060439 /// RAP1B / Fold change vs veh, LOC101060439 /// RAP1B / RFU, RFX7 / Fold change vs veh, RFX7 / RFU, GTPBP10 / Fold change vs veh, GTPBP10 / RFU, CNEP1R1 / Fold change vs veh, CNEP1R1 / RFU, BIVM-ERCC5 /// ERCC5 / Fold change vs veh, BIVM-ERCC5 /// ERCC5 / RFU, ILF3 / Fold change vs veh, ILF3 / RFU 11762660_at / Fold change /veh 11762660_at / RFU VCAN (11757783_s_at) / Fold change /veh VCAN (11757783_s_at) / RFU DDX43 (11728927_at) / Fold change /veh DDX43 (11728927_at) / RFU KRT8 (11758188_x_at) / Fold change /veh KRT8 (11758188_x_at) / RFU NKD1 (11759106_at) / Fold change /veh NKD1 (11759106_at) / RFU SRD5A1 (11742802_a_at) / Fold change /veh SRD5A1 (11742802_a_at) / RFU TPSAB1 /// TPSB2 (11721975_s_at) / Fold change /veh TPSAB1 /// TPSB2 (11721975_s_at) / RFU GSTM3 (11746129_a_at) / Fold change /veh GSTM3 (11746129_a_at) / RFU IL23R (11737362_x_at) / Fold change /veh IL23R (11737362_x_at) / RFU TMEM51 (11727254_a_at) / Fold change /veh TMEM51 (11727254_a_at) / RFU PIWIL2 (11732686_x_at) / Fold change /veh PIWIL2 (11732686_x_at) / RFU ORM1 (11744905_x_at) / Fold change /veh ORM1 (11744905_x_at) / RFU CCDC152 (11743942_at) / Fold change /veh CCDC152 (11743942_at) / RFU ECM1 (11717891_a_at) / Fold change /veh ECM1 (11717891_a_at) / RFU IL23R (11748794_a_at) / Fold change /veh IL23R (11748794_a_at) / RFU TNFAIP8L3 (11732012_x_at) / Fold change /veh TNFAIP8L3 (11732012_x_at) / RFU MBOAT4 (11741988_at) / Fold change /veh MBOAT4 (11741988_at) / RFU 11764193_at / Fold change /veh 11764193_at / RFU TMEM53 (11763286_at) / Fold change /veh TMEM53 (11763286_at) / RFU MAGEB2 (11727129_at) / Fold change /veh MAGEB2 (11727129_at) / RFU TMEM200A (11744735_a_at) / Fold change /veh TMEM200A (11744735_a_at) / RFU CCDC152 (11751479_a_at) / Fold change /veh CCDC152 (11751479_a_at) / RFU FAM211A (11726209_a_at) / Fold change /veh FAM211A (11726209_a_at) / RFU RGS16 (11746705_a_at) / Fold change /veh RGS16 (11746705_a_at) / RFU VCAN (11755009_s_at) / Fold change /veh VCAN (11755009_s_at) / RFU RHOB (11743442_s_at) / Fold change /veh RHOB (11743442_s_at) / RFU RGS16 (11720943_a_at) / Fold change /veh RGS16 (11720943_a_at) / RFU RGS16 (11720944_at) / Fold change /veh RGS16 (11720944_at) / RFU, VPS4B / Fold change vs veh, VPS4B / RFU, CREB1 / Fold change vs veh, CREB1 / RFU, DNAJC13 / Fold change vs veh, DNAJC13 / RFU, GNAQ / Fold change vs veh, GNAQ / RFU, CDK5R1 / Fold change vs veh, CDK5R1 / RFU, ZRANB3 / Fold change vs veh, ZRANB3 / RFU, CUL4A / Fold change vs veh, CUL4A / RFU, CCNY / Fold change vs veh, CCNY / RFU, UFL1 / Fold change vs veh, UFL1 / RFU, COG3 / Fold change vs veh, COG3 / RFU, DIAPH2 / Fold change vs veh, DIAPH2 / RFU, SKA2 / Fold change vs veh, SKA2 / RFU, AFF3 / Fold change vs veh, AFF3 / RFU, LMF1 / Fold change vs veh, LMF1 / RFU, IPO11 / Fold change vs veh, IPO11 / RFU, DFFB / Fold change vs veh, DFFB / RFU, FOXP1 / Fold change vs veh, FOXP1 / RFU, CARD8 / Fold change vs veh, CARD8 / RFU, STRN3 / Fold change vs veh, STRN3 / RFU, ADK / Fold change vs veh, ADK / RFU, RASSF2 / Fold change vs veh, RASSF2 / RFU, WIPF1 / Fold change vs veh, WIPF1 / RFU, LARP1B / Fold change vs veh, LARP1B / RFU, RASA1 / Fold change vs veh, RASA1 / RFU, RB1 / Fold change vs veh, RB1 / RFU, PPFIA1 / Fold change vs veh, PPFIA1 / RFU, MAT2A / Fold change vs veh, MAT2A / RFU, CCT5 / Fold change vs veh, CCT5 / RFU, WDR92 / Fold change vs veh, WDR92 / RFU, CUX1 / Fold change vs veh, CUX1 / RFU, TTC7A / Fold change vs veh, TTC7A / RFU, TMEM135 / Fold change vs veh, TMEM135 / RFU, DEPTOR / Fold change vs veh, DEPTOR / RFU, CPM / Fold change vs veh, CPM / RFU, DNAJB6 / Fold change vs veh, DNAJB6 / RFU, CACNA2D3 / Fold change vs veh, CACNA2D3 / RFU, DTX4 / Fold change vs veh, DTX4 / RFU, TFCP2 / Fold change vs veh, TFCP2 / RFU, GMCL1 /// GMCL1P1 / Fold change vs veh, GMCL1 /// GMCL1P1 / RFU, AEBP2 / Fold change vs veh, AEBP2 / RFU, SNHG1 /// SNORD22 /// SNORD25 /// SNORD26 /// SNORD27 /// SNORD28 /// SNORD29 /// SNORD31 / Fold change vs veh, SNHG1 /// SNORD22 /// SNORD25 /// SNORD26 /// SNORD27 /// SNORD28 /// SNORD29 /// SNORD31 / Fold change (Aza/veh), C12orf56 (ProbeSet 11735607_a_at) / Fold change (ACY-1035/veh), C12orf56 (ProbeSet 11735607_a_at) / Fold change (Aza/veh), FGFR1OP (ProbeSet 11751329_s_at) / Fold change (ACY-1035/veh), FGFR1OP (ProbeSet 11751329_s_at) / Fold change (Aza/veh), VPS36 (ProbeSet 11739960_a_at) / Fold change (ACY-1035/veh), VPS36 (ProbeSet 11739960_a_at) / RFU SYPL1 (11715823_x_at) / Fold change /veh SYPL1 (11715823_x_at) / RFU IGFBP7 (11715501_s_at) / Fold change /veh IGFBP7 (11715501_s_at) / RFU REEP3 (11722064_at) / Fold change /veh REEP3 (11722064_at) / RFU IGLL1 (11728026_x_at) / Fold change /veh IGLL1 (11728026_x_at): dose or concentration left out as unconfirmed
Conditions: MV-4-11 cells, 48 hours

## Nc1ncn([C@@H]2O[C@H](CO)[C@@H](O)[C@H]2O)c(=O)n1 [azacitidine]
  RFU IL23R (11748794_a_at): 8.76 RFU
